Results: the supplement of paper PMC10307832

Legend:
Test in all cases: relative viability (nuclei count vs DMSO), 5 days (fraction); higher = more cells survive
AZ628 + Alpelisib = compound: CC1=C(C=C(C=C1)NC(=O)C2=CC(=CC=C2)C(C)(C)C#N)NC3=CC4=C(C=C3)N=CN(C4=O)C [AZ628] + Cc1nc(NC(=O)N2CCC[C@H]2C(N)=O)sc1-c1ccnc(C(C)(C)C(F)(F)F)c1 [Alpelisib] (partner 2 µM)
Procedure, shortened: (§1)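 Relative viability equals treated-well nuclei counts divided by vehicle-well nuclei counts. Counts came from 4× images of lung cancer cell lines grown in 1536-well plates for 5 days after pin-tool dosing on the day after seeding. Dosing used one drug alone or a fixed anchor-drug dose plus five library-drug doses (not always all listed) in √10 steps, and values are medians of duplicate plates.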

Darinaparsin + Dasatinib = compound: C[As](C)SC[C@H](NC(=O)CC[C@H](N)C(=O)O)C(=O)NCC(=O)O [Darinaparsin] + Cc1nc(Nc2ncc(C(=O)Nc3c(C)cccc3Cl)s2)cc(N2CCN(CCO)CC2)n1 [Dasatinib] (partner 0.075 µM)
Procedure, shortened: as §1

[1] = compound: C[As](C)SC[C@H](NC(=O)CC[C@H](N)C(=O)O)C(=O)NCC(=O)O [Darinaparsin] + Cc1cc(Nc2cc(N3CCN(C)CC3)nc(Sc3ccc(NC(=O)C4CC4)cc3)n2)n[nH]1 [Tozasertib] (partner 0.1 µM)
Procedure, shortened: as §1

AZ628 + Vorinostat = compound: CC1=C(C=C(C=C1)NC(=O)C2=CC(=CC=C2)C(C)(C)C#N)NC3=CC4=C(C=C3)N=CN(C4=O)C [AZ628] + O=C(CCCCCCC(=O)Nc1ccccc1)NO [Vorinostat] (partner 1 µM)
Procedure, shortened: as §1

Cell Line	relative viability (AZ628 + Alpelisib; first compound 0.08 µM)	relative viability (AZ628 + Alpelisib; first compound 0.253 µM)	relative viability (AZ628 + Alpelisib; first compound 0.8 µM)	relative viability (AZ628 + Alpelisib; first compound 2.53 µM)	relative viability (AZ628 + Alpelisib; first compound 8 µM)	relative viability (Darinaparsin + Dasatinib; first compound 0.08 µM)	relative viability (Darinaparsin + Dasatinib; first compound 0.8 µM)	relative viability (Darinaparsin + Dasatinib; first compound 2.53 µM)	relative viability (Darinaparsin + Dasatinib; first compound 8 µM)	relative viability ([1]; first compound 0.08 µM)	relative viability ([1]; first compound 0.8 µM)	relative viability ([1]; first compound 2.53 µM)	relative viability ([1]; first compound 8 µM)	relative viability (AZ628 + Vorinostat; first compound 0.08 µM)	relative viability (AZ628 + Vorinostat; first compound 0.253 µM)	relative viability (AZ628 + Vorinostat; first compound 0.8 µM)	relative viability (AZ628 + Vorinostat; first compound 2.53 µM)	relative viability (AZ628 + Vorinostat; first compound 8 µM)
NCI-H3122	0.631	0.337	0.342	0.268	0.233	0.998	0.73	0.71	0.968	0.446	0.41	0.377	0.417	0.932	0.921	0.737	0.768	0.496
PC-3 [JPC-3]	1.01	1.08	1.06	1.11	0.97	1.11	1	0.826	1.01	1.08	0.996	0.739	1.1	1.15	0.7	0.891	0.793	0.709
PC-14	1	0.854	0.923	1.01	0.751	0.189	0.24	0.245	0.211	0.707	0.479	0.768	0.577	0.762	0.745	0.632	0.677	0.232
RERF-LC-KJ	0.721	0.912	0.749	0.719	0.597	0.916	0.87	0.621	0.758	0.482	0.483	0.447	0.472	0.779	0.735	0.741	0.677	0.656
SK-LU-1	0.733	1.12	0.802	0.934	0.512	0.173	0.107	0.173	0.183	0.402	0.278	0.294	0.316	0.595	0.896	0.726	0.758	0.611
SK-MES-1	0.821	0.956	0.823	0.779	0.674	0.284	0.258	0.344	0.345	1.08	0.854	0.74	0.968	1.07	1.18	1.04	1.1	0.572
SW 1573	0.787	0.742	0.693	0.567	0.538	0.498	0.625	0.299	0.656	0.145	0.2	0.197	0.14	1.01	0.641	0.592	0.575	0.508
UMC-11	1	0.987	0.949	1.13	1.1	0.711	0.473	0.401	0.578	0.215	0.211	0.211	0.188	0.442	0.336	0.361	0.328	0.36
